# From patent US10143705B2, “Method of treating a patient with a disease caused by a pathogenic mechanism associated with accumlation of methylglyoxal” (priority 2015, dated 2018)
# Assay: Inhibitory effect of monosaccharides against methylglyoxal in vitro
# Details: concentration 0.05 M
# Source text: The percentage inhibitory ratio of monosaccharide against methylglyoxal is 50% when the concentration of the monosaccharide is 0.05 M.
# Foregoing exemplary embodiments of the present invention manifest that the low-molecular-weight chitosan has considerable effect to the carbonyl stress induced by the methylglyoxal both in vivo and in vitro. For an exemplary embodiment in vitro, the present invention employs buffer to simulate the same environmental status as human body by means of putting glucosamine and low-molecular-weight chitosan into buffer containing methylglyoxal to measure the bonding ratio thereof after 16 hours so that the half Inhibitory concentration associated with the affecting of low-molecular-weight chitosan to methylglyoxal can be obtained for further study on the examination of the binding conjugation of low-molecular-weight chitosan with methylglyoxal in vitro.
compound,measurement,value
"NC1C(O)[C@H](O)C(CO)O[C@@H]1O (stereo partly shown) [monosaccharide, glucosamine]",percentage inhibitory ratio against methylglyoxal,50%
